pKd: −log10 of the molar value. Values after ≈ are worked out from the molar mass of the structure shown. Like-named read-outs stand apart in the source and are kept apart here.
What was measured:
p38 MAPK β = p38 MAPK β (Homo sapiens (Human), UniProt Q15759); assay: KINOMEscan enzyme binding assay (p38 MAPKβ); conditions: KINOMEscan technology; read-out: Dissociation Constant, p38 MAPK β
Procedure: (§1) Kinase enzyme binding activities of compounds disclosed herein may be determined using a proprietary assay which measures active site-directed competition binding to an immobilized ligand (Fabian, M. A. et al., Nature Biotechnol., 2005, 23:329-336). These assays may be conducted by DiscoverX (formerly Ambit; San Diego, Calif.). The percentage inhibition produced by incubation with a test compound may be calculated relative to the non-inhibited control.

Syk = Syk (Homo sapiens (Human), UniProt P43405); assay: KINOMEscan enzyme binding assay (Syk); conditions: KINOMEscan technology; read-out: Dissociation Constant, Syk
Procedure: as §1

[1] = tested on: endotoxin (LPS)-induced uveitis; assay: Endotoxin-induced uveitis in rats (in vivo assay vi); set-up: species or system Lewis rats; conditions: for IL-1β Anterior tissue / IL-1β Posterior tissue: LPS-stimulated rats, topical to eye; for Cell counts: eyes of LPS-stimulated rats, topical
Procedure: Male, Lewis rats (6-8 weeks old, Charles River UK Limited) are housed in cages of 3 at 19-21° C. with a 12 h light/dark cycle (07:00/19:00) and fed a standard diet of rodent chow and water ad libitum. […] Untreated rats are injected with PBS. […] Before administration, the solution or suspension to be administered is agitated for 5 minutes to ensure a uniform suspension. 6 hours after LPS dosing, animals are euthanized by overdose with pentobarbitone (i.v.). Following euthanasia, the right eye of each animal is enucleated and dissected into front (anterior) and back (posterior) sections around the lens. Each section is weighed and homogenised in 500 μL of sterile phosphate buffered saline followed by 20 minutes centrifugation at 12000 rpm at 4° C. The resulting supernatant is divided into 3 aliquots and stored at −80° C. until subsequent cytokine analysis by R&D DuoSet ELISA.

[2] = Solubility in fasted-state simulated colonic fluid (FaSSCoF); assay type: physicochemical; conditions: thermodynamic from solid, pH 6.5, 25° C.; for solubility thermodynamic at 24 h: 25 °C, pH 6.5, fassgf or other biorelevant; for solubility at 24 h: fassgf or other biorelevant, read-out: Solubility in the FaSSCoF medium
Procedure: The solubilities of compounds of the invention in FaSSCoF at pH 6.5 are determined using a modification of a previously-reported procedure (Vertzoni, M., et al. Pharm. Res. 2010, 27, 2187-2196). In place of the bile salt extract employed in the original procedure (which extract is no longer available), the modified procedure uses a mixture of sodium taurochlorate (0.15 g), glycocholic acid (0.15 g), ursodeoxycholic acid (0.05 g), cholic acid (0.05 g), and glycodeoxycholic acid (0.05 g). These five bile acids are ground together with a mortar and pestle to produce a fine white powder that is incorporated into the FaSSCoF, as outlined below.
Tris(hydroxymethyl)aminomethane (Tris; 0.275 g) and maleic acid (0.44 g) are dissolved in water (35 mL) to give a solution whose pH is adjusted to 6.5 by treatment with 0.5M NaOH (ca. 12 mL). The solution is then made up to 50 mL with water. A portion of this Tris/maleate buffer solution (ca. 25 mL) is added to a 0.5 L round-bottomed flask, before being treated with 0.00565 g of the bile acid mixture described above. Solutions of phosphatidylcholine (0.0111 g) in DCM (0.15 mL) and palmitic acid (0.0013 g) in DCM (0.15 mL) are added, then the organic solvent is evaporated off under reduced pressure at 40° C. until a clear solution, with no perceptible DCM odour, is achieved. The volume of the evaporated solution is adjusted to 50 mL by addition of the remainder of Tris/maleate buffer, then BSA (0.115 g) is added, before being dissolved by gentle agitation.
Test compounds are suspended in the pH 6.5 FaSSCoF medium to give a maximum final concentration of ca. 6 mg/mL. The suspensions are equilibrated at 25° C. for 24 h, before being filtered through a glass fibre C filter. The filtrates are then diluted as appropriate for injection and quantification by HPLC with reference to a standard. Different volumes of the standard, diluted and undiluted sample solutions are injected and the solubilities are calculated using the peak areas determined by integration of the peak found at the same retention time as the principal peak in the standard injection.

[3] = Run 1, read-out: pH 6.5 FaSSCoF Solubility Run 1
[4] = Run 2, read-out: pH 6.5 FaSSCoF Solubility Run 2

Sequence of p38 MAPK β (Q15759 whole entry): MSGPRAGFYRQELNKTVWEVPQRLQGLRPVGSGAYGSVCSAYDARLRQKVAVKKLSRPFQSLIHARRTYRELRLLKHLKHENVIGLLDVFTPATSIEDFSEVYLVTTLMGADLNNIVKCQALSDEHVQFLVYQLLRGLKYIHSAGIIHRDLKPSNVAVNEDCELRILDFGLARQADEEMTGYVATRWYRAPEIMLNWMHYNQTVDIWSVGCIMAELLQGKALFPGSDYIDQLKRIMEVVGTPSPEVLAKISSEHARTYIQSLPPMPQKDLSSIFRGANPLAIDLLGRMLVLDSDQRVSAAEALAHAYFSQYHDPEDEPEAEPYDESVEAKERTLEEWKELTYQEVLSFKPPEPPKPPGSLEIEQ

Row | SMILES | pKd (p38 MAPK β) | pKd (Syk) | solubility thermodynamic at 24 h [2, 3] | solubility thermodynamic at 24 h [2, 4] | solubility at 24 h [2] | further results
1 | COc1c(NC(=O)Nc2ccc(Oc3ccnc(Nc4ccccc4)c3)c3ccccc23)cc(C(C)(C)C)cc1[S+](C)[O-] (racemic) [Example 12, 1-(5-(tert-Butyl)-2-methoxy-3-(methylsulfinyl)phenyl)-3-(4-((2-(phenylamino)pyridin-4-yl)oxy)naphthalen-1-yl)urea] | 7.24 | 7.74 |  |  |  | 
2 | COCCOCCOCCOc1cc(Nc2cc(Oc3ccc(NC(=O)Nc4cc(C(C)(C)C)cc(S(C)(=O)=O)c4OC)c4ccccc34)ccn2)cc(OC)c1 [Example 9, 1-(5-(tert-Butyl)-2-methoxy-3-(methylsulfonyl)phenyl)-3-(4-((2-((3-methoxy-5-(2-(2-(2-methoxyethoxy)ethoxy)ethoxy)phenyl)amino)pyridin-4-yl)oxy)naphthalen-1-yl)urea] | 6.47 | 7.54 |  |  |  | 
3 | COc1cc(Nc2cc(Oc3ccc(NC(=O)Nc4cc(C(C)(C)C)cc(P(C)(C)=O)c4OC)c4ccccc34)ccn2)cc(C(N)=O)c1 [Example 37, 3-((4-((4-(3-(5-(tert-butyl)-3-(dimethylphosphoryl)-2-methoxyphenyl)ureido)-naphthalen-1-yl)oxy)pyridin-2-yl)amino)-5-methoxybenzamide] |  | 8.29 |  |  |  | IL-1β Anterior tissue ([1]; 0.1 mg/mL): 480.1 ± 113.7 pg/mL; IL-1β Posterior tissue ([1]; 0.1 mg/mL): 319.6 ± 64.8 pg/mL; IL-1β Anterior tissue ([1]; 1 mg/mL): 330.4 ± 94.2 pg/mL; IL-1β Posterior tissue ([1]; 1 mg/mL): 285.8 ± 96.4 pg/mL; Cell counts ([1]; 0.1 mg/mL): 39.1 ± 7.1; Cell counts ([1]; 1 mg/mL): 32.6 ± 9.5; Cytokine levels in anterior and posterior segments of the eyes ([1]; rats treated with intravitreal endotoxin LPS): significantly reduced
4 | COc1cc(Nc2cc(Oc3ccc(NC(=O)Nc4cc(C(C)(C)C)cc([S+](C)[O-])c4OC)c4ccccc34)ccn2)ccc1C(=O)NCCN1CCOCC1 (stereo not drawn) [Example 72, 4-((4-((4-(3-(5-(tert-Butyl)-2-methoxy-3-(methylsulfinyl)phenyl)ureido)naphthalen-1-yl)oxy)pyridin-2-yl)amino)-2-methoxy-N-(2-morpholinoethyl)benzamide] |  |  | 10.7 µg/mL (≈ 13.7 µM) | 11.2 µg/mL (≈ 14.3 µM) | > 10 µg/mL | 
5 | COc1cc(Nc2cc(Oc3ccc(NC(=O)Nc4cc(C(C)(C)C)cc(CC(N)=O)c4OC)c4ccccc34)ccn2)ccc1C(=O)NCC(CO)(CO)CO [Example 73, 4-((4-((4-(3-(3-(2-Amino-2-oxoethyl)-5-(tert-butyl)-2-methoxyphenyl)ureido)naphthalen-1-yl)oxy)pyridin-2-yl)amino)-N-(3-hydroxy-2,2-bis(hydroxymethyl)propyl)-2-methoxybenzamide] |  |  | 15.2 µg/mL (≈ 19.5 µM) | 16.6 µg/mL (≈ 21.3 µM) | > 10 µg/mL | 
6 | COCCOCCOCCNC(=O)c1cc(Nc2cc(Oc3ccc(NC(=O)Nc4cc(C(C)(C)C)cc(CNC(=O)CN(C)C)c4OC)c4ccccc34)ccn2)cc(OC)c1 [Example 77, 3-((4-((4-(3-(5-(tert-Butyl)-3-((2-(dimethylamino)acetamido)methyl)-2-methoxyphenyl)ureido)naphthalen-1-yl)oxy)pyridin-2-yl)amino)-5-methoxy-N-(2-(2-(2-methoxyethoxy)ethoxy)ethyl)benzamide] |  |  | 12.3 µg/mL (≈ 14.2 µM) | 13 µg/mL (≈ 15 µM) | > 10 µg/mL | 

From patent publication US9890185B2, “Urea derivatives useful as kinase inhibitors” (Respivert Limited, priority 2013, dated 2018)
